Among the test systems are RXF 393; CCRF-CEM; SNB-75; SR; OVCAR-4; CAKI-1; HT-29; ACHN; UO-31; UACC-62; SF-268; MOLT-4; A549; SK-OV-3; SN12C; RPMI-8226; OVCAR-3; EKVX; Hs-578T; SK-MEL-2.
Holding throughout (assay): growth of human tumour cells (NCI), 48 h

Structures are written as SMILES.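 Assay format: 96-well plates, 48-hour exposure. GI50 = concentration required for 50% inhibition of growth.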 The source made the active and inactive calls. Rule as the data show it: active = GI50 up to about 1.1 µM and inactive = higher.

Consider `O=c1[nH]c2cc([N+](=O)[O-])ccc2nc1/C(=N\NO)C(O)c1ccc([N+](=O)[O-])cc1` (stereo not given), for which the GI50 is > 100 µM (inactive) with RXF 393; 66.2 µM (inactive) in the assay with CCRF-CEM; > 100 µM (inactive) with SNB-75; > 100 µM (inactive) in the assay on SR; > 100 µM (inactive) in the assay on OVCAR-4; 50.2 µM (inactive) with CAKI-1. Moreover, the GI50 in the assay with HT-29 is > 100 µM (inactive); in the assay with ACHN, 52.5 µM (inactive); with UO-31 it was > 100 µM (inactive); in the assay on UACC-62, 59.6 µM (inactive); in the assay on SF-268, > 100 µM (inactive); with MOLT-4 it was > 100 µM (inactive). The GI50 with A549 was > 100 µM (inactive); in the assay on SK-OV-3, > 100 µM (inactive); in the assay with SN12C it was 98.9 µM (inactive); in the assay with RPMI-8226, > 100 µM (inactive); in the assay with OVCAR-3 it was > 100 µM (inactive).
Turning to `CCn1nc(C)c2c1C(=O)NC(C)C(=O)N2` (stereo not given), the GI50 in the assay on RXF 393, in the assay on SNB-75, in the assay on EKVX, with Hs-578T, in the assay on OVCAR-4 and in the assay on CAKI-1 was > 100 µM (inactive) each time. Further, the GI50 in the assay with HT-29, in the assay on ACHN, in the assay with UO-31, in the assay on UACC-62, with SF-268 and in the assay with A549 was > 100 µM (inactive) each time. Besides, the results for the GI50 in the assay with SK-OV-3, in the assay with SN12C and with OVCAR-3 were > 100 µM (inactive), 36.6 µM (inactive) and > 100 µM (inactive), respectively.
For `O=C(O)c1c[nH]c2c(Sc3ccccc3)nccc2c1=O`, the GI50 with CCRF-CEM is 47 µM (inactive); with SNB-75, > 100 µM (inactive); in the assay on EKVX, 70.3 µM (inactive); in the assay with Hs-578T, > 100 µM (inactive); in the assay on OVCAR-4, > 100 µM (inactive); in the assay with CAKI-1 it was > 100 µM (inactive). For the same compound, the GI50 in the assay on HT-29, in the assay on ACHN, in the assay on UO-31, with UACC-62, with SF-268 and with MOLT-4 was > 100 µM (inactive) each time. Besides, the GI50 in the assay on SK-MEL-2, in the assay with A549, in the assay with SK-OV-3, in the assay with SN12C and in the assay with OVCAR-3 was > 100 µM (inactive) throughout.
Take `NS(=O)(=O)c1ccc(C(=O)O)cc1` [CARZENIDE]: the GI50 in the assay with RXF 393, with CCRF-CEM, in the assay with EKVX, in the assay with Hs-578T, with OVCAR-4 and in the assay with CAKI-1 was > 100 µM (inactive) in each case. Besides, the GI50 in the assay with HT-29, in the assay on ACHN, in the assay with UO-31, with UACC-62, in the assay on SF-268 and in the assay on MOLT-4 was > 100 µM (inactive) each time. The GI50 with SK-MEL-2, in the assay on A549, with SK-OV-3, with SN12C, in the assay with RPMI-8226 and in the assay with OVCAR-3 was > 100 µM (inactive) each time.
For the compound `[O-][S+]1Nc2c(Cl)cc(Cl)c(Cl)c2S1` (stereo not given), the GI50 with RXF 393 is > 100 µM (inactive); in the assay on CCRF-CEM, 39.3 µM (inactive); in the assay with SNB-75, 22.7 µM (inactive); in the assay on SR it was 43.1 µM (inactive); in the assay on EKVX, > 100 µM (inactive); in the assay on OVCAR-4, > 100 µM (inactive). Also, the GI50 is 41.2 µM (inactive) in the assay with CAKI-1; > 100 µM (inactive) in the assay with HT-29; > 100 µM (inactive) in the assay on ACHN; 86.9 µM (inactive) in the assay on UO-31; > 100 µM (inactive) in the assay on UACC-62; > 100 µM (inactive) in the assay with SF-268. Besides, the GI50 in the assay with MOLT-4 was 34.7 µM (inactive); in the assay on SK-MEL-2, > 100 µM (inactive); in the assay on A549, > 100 µM (inactive); in the assay with SK-OV-3 it was > 100 µM (inactive); with SN12C, > 100 µM (inactive); with RPMI-8226, > 100 µM (inactive). Further, the GI50 in the assay with OVCAR-3 was 78.2 µM (inactive).
With `CC(Nc1ccc(S(=O)(=O)NC(=N)N)cc1)c1c2ccccc2nc2ccccc12` (stereo not given), the GI50 was 26.9 µM (inactive) in the assay with RXF 393; 19.3 µM (inactive) in the assay on CCRF-CEM; 26.8 µM (inactive) in the assay on SNB-75; 14.2 µM (inactive) with SR; 25.5 µM (inactive) in the assay with EKVX; 10.1 µM (inactive) in the assay on OVCAR-4. Also, the GI50 in the assay with CAKI-1 was 19 µM (inactive); with HT-29, 35.4 µM (inactive); with ACHN, 24.7 µM (inactive); with UO-31, 19 µM (inactive); with UACC-62, > 10 µM (inactive); with SF-268, 31 µM (inactive). For the same compound, the GI50 is 14.6 µM (inactive) in the assay with MOLT-4; 22.5 µM (inactive) in the assay with SK-MEL-2; 31.4 µM (inactive) with A549; 26.4 µM (inactive) in the assay on SK-OV-3; 30 µM (inactive) in the assay with SN12C; 16.3 µM (inactive) in the assay on RPMI-8226. In addition, the GI50 in the assay with OVCAR-3 is > 10 µM (inactive).
On to `COC1C(OC(N)=O)C(O)C(Oc2ccc3c(O)c(NC(=O)c4ccc(O)c(CC=C(C)C)c4)c(=O)oc3c2C)OC1(C)C` (stereo not given), for which the GI50 was > 100 µM (inactive) in the assay with RXF 393; 77.8 µM (inactive) in the assay with CCRF-CEM; > 100 µM (inactive) in the assay on SNB-75; 18.4 µM (inactive) in the assay with SR; > 100 µM (inactive) in the assay on EKVX; > 100 µM (inactive) in the assay on CAKI-1. Also, the GI50 with HT-29 is > 100 µM (inactive); in the assay on ACHN it was > 100 µM (inactive); in the assay on UO-31 it was > 100 µM (inactive); in the assay on UACC-62, 69.2 µM (inactive); in the assay with SF-268 it was > 100 µM (inactive); in the assay with MOLT-4 it was 48 µM (inactive). The GI50 in the assay with SK-MEL-2 was > 100 µM (inactive); with A549, > 100 µM (inactive); in the assay with SK-OV-3, > 100 µM (inactive); in the assay with SN12C it was > 100 µM (inactive); in the assay on RPMI-8226, 28.4 µM (inactive); in the assay on OVCAR-3, > 100 µM (inactive).
Consider `O=C(C1OC1c1ccc(Cl)cc1)C12CC3CC(CC(C3)C1)C2` (stereo not given), for which the GI50 was 21.8 µM (inactive) with RXF 393; 19 µM (inactive) with CCRF-CEM; 32.8 µM (inactive) with SNB-75; 23.1 µM (inactive) with EKVX; 28.4 µM (inactive) in the assay on Hs-578T; 15.4 µM (inactive) in the assay on OVCAR-4. Moreover, the GI50 was 28.8 µM (inactive) in the assay with CAKI-1; 21 µM (inactive) in the assay with HT-29; 35.4 µM (inactive) in the assay with ACHN; 20.4 µM (inactive) in the assay with UO-31; 15.4 µM (inactive) in the assay on UACC-62; 20.8 µM (inactive) in the assay on SF-268. Besides, the GI50 was 20 µM (inactive) in the assay on MOLT-4; 25.5 µM (inactive) in the assay on SK-MEL-2; 21.8 µM (inactive) in the assay on A549; 31 µM (inactive) with SK-OV-3; 14.7 µM (inactive) with SN12C; 15.8 µM (inactive) in the assay with OVCAR-3.
In the case of `CC(C)(C)[C@H]1CC[C@@](O)(c2ccccc2)CC1.CC(C)(C)[C@H]1CC[C@](O)(c2ccccc2)CC1`, the GI50 was 18.6 µM (inactive) with RXF 393; 26.5 µM (inactive) in the assay with CCRF-CEM; 24.3 µM (inactive) in the assay on SNB-75; 15.2 µM (inactive) with SR; 23.1 µM (inactive) in the assay on EKVX; 16.2 µM (inactive) in the assay with HT-29. The GI50 with ACHN was 20 µM (inactive); in the assay with UO-31 it was 31.5 µM (inactive); in the assay on UACC-62, 19.1 µM (inactive); with MOLT-4 it was 15.6 µM (inactive); with SK-MEL-2, 14.7 µM (inactive); in the assay with A549 it was 26 µM (inactive). The GI50 in the assay on SK-OV-3 is 72.8 µM (inactive); with SN12C it was 18.8 µM (inactive); with RPMI-8226, 21.1 µM (inactive); in the assay with OVCAR-3 it was 17.2 µM (inactive).
As for `CC(C)(C)C1CCN(C(=O)c2ccccc2)CC1`, the GI50 in the assay with RXF 393 was 76 µM (inactive); with CCRF-CEM, > 100 µM (inactive); in the assay on SNB-75, 69 µM (inactive); in the assay with SR, 64.6 µM (inactive); with EKVX, > 100 µM (inactive); in the assay with HT-29, > 100 µM (inactive). The GI50 in the assay with ACHN is > 100 µM (inactive); in the assay on UO-31, > 100 µM (inactive); in the assay on UACC-62, > 100 µM (inactive); in the assay with MOLT-4, 47.3 µM (inactive); in the assay with SK-MEL-2, > 100 µM (inactive); in the assay on A549 it was 90.6 µM (inactive). For the same compound, the GI50 in the assay on SK-OV-3 was > 100 µM (inactive); in the assay on SN12C, > 100 µM (inactive); in the assay on RPMI-8226 it was 46 µM (inactive); in the assay with OVCAR-3, 36.8 µM (inactive).
For the compound `O=C(CC(=O)c1cccc([N+](=O)[O-])c1)C(=O)Nc1nc([N+](=O)[O-])cs1`, the GI50 in the assay with RXF 393 is > 100 µM (inactive); with CCRF-CEM it was 47.8 µM (inactive); in the assay on SR, 83 µM (inactive); in the assay with EKVX, > 100 µM (inactive); in the assay with OVCAR-4, 0.0307 µM (active); with CAKI-1 it was 83.8 µM (inactive). In addition, the GI50 with HT-29, with UO-31, in the assay on UACC-62, in the assay with SF-268, in the assay on MOLT-4 and in the assay with SK-MEL-2 was > 100 µM (inactive) each time. Also, the GI50 in the assay on A549 was > 100 µM (inactive); in the assay with SK-OV-3, > 100 µM (inactive); with SN12C it was > 100 µM (inactive); in the assay with RPMI-8226 it was 65 µM (inactive); with OVCAR-3 it was > 100 µM (inactive).
